Measurements reported in paper PMC6017732, “Identification and Characterizations of Novel, Selective Histone Methyltransferase SET7 Inhibitors by Scaffold Hopping- and 2D-Molecular Fingerprint-Based Similarity Search” (Molecules : A Journal of Synthetic Chemistry and Natural …, 2018).

Target: T1, SET7 (Homo sapiens, UniProt Q8WTS6)
T1 sequence (Q8WTS6 1-366): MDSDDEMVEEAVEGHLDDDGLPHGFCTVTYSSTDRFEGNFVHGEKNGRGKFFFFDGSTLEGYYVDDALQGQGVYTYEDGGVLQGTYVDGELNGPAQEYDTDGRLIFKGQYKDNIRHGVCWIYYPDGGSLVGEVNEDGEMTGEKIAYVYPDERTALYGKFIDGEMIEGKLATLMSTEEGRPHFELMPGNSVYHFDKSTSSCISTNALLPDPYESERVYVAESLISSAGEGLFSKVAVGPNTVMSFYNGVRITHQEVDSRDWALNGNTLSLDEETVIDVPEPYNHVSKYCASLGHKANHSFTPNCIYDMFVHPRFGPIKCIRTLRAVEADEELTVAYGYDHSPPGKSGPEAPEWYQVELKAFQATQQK
Test: AlphaLISA SET7 inhibition assay
Format: biochemical
Settings: AlphaLISA assay, SAR discussion
Description: AlphaLISA assays were applied to determine the inhibitory activity targeting SET7. The purified SET7 protein was incubated in modified Tris buffer in 384-well plates (Perkin Elmer, Cat. No. 6007299, Waltham, MA, USA) at room temperature for 15 min. The compounds were transferred to the assay plate using Echo in 100% DMSO, and substrate solution was added to each well to start the reaction. Acceptor and donor beads were added and incubated for 60 min at room temperature, shielded from light. The endpoint was evaluated with EndSpire in Alpha mode. The experimental data was fitted in GraphPad Prism 5 to obtain inhibition values using the equation as follows:(1) Inhibition %= Max−Siginal/Max−Min×100%
With COc1cc(/C=N/NC(=O)c2ccc(-c3ccccc3)cc2)c([N+](=O)[O-])cc1OC [DC-S305] the “activity against SET7 (in words)” value was “no activity”.

Same assay, conditions: AlphaLISA assay, SET7
In the case of O=C(NN=Cc1ccc(-c2ccccc2Cl)o1)c1ccc([N+](=O)[O-])cc1 [DC-S364], the IC50 is reported as 3.7 µM.
O=C(CCC(=O)N/N=C/c1cc([N+](=O)[O-])ccc1Cl)NCc1ccccc1 [DC-S314] showed an IC50 of 46 µM.
In the case of O=C(NNC(=O)c1ccc([N+](=O)[O-])cc1)c1ccc(-c2ccccc2)cc1 [DC-S334], the IC50 is reported as 9.9 µM.
For O=C(NN=Cc1cc2c(cc1Br)OCO2)c1ccc([N+](=O)[O-])cc1 [DC-S351], the IC50 was 3.4 µM.
COc1cc(/C=N/NC(=O)c2ccc(-c3ccccc3)cc2)ccc1OC(C)=O [DC-S306] showed an IC50 of 20 µM.

Same assay, conditions: AlphaLISA assay, SET7, 100 μM; read-out: Inhibition Ratio at 100 μM/%
O=C(NN=Cc1ccc[nH]1)c1ccc([N+](=O)[O-])cc1 [DC-S347] gave an inhibition at 100 µM of 10%.
In the case of O=C(NN=Cc1cc([N+](=O)[O-])ccc1N1CCCCC1)c1ccc([N+](=O)[O-])cc1 [DC-S354], the inhibition at 100 µM is reported as 35%.
For COc1cc(C=NNC(=O)c2ccc([N+](=O)[O-])cc2)ccc1OC(C)=O [DC-S362], the inhibition at 100 µM was -4%.
Work on O=C(N/N=C/c1cc([N+](=O)[O-])ccc1Cl)c1cccc(O)c1 [DC-S316] yielded an inhibition at 100 µM of 37%.
For O=C(NNC(=O)C(F)(F)F)c1ccc(-c2ccccc2)cc1 [DC-S342], the inhibition at 100 µM was -13%.
In the case of COc1ccc(C(=O)NN=Cc2ccc([N+](=O)[O-])cc2)cc1OC [DC-S365], the inhibition at 100 µM is reported as 10%.
In the case of O=C(N/N=C/c1cccc(Cl)c1Cl)c1ccc(-c2ccccc2)cc1 [DC-S312], the inhibition at 100 µM is reported as -3%.
For COc1ccc(C=NNC(=O)c2ccc([N+](=O)[O-])cc2)c2ccccc12 [DC-S357], the inhibition at 100 µM was 13%.
With O=C(NN=Cc1c(OC(=O)c2ccc(Cl)cc2)ccc2ccccc12)c1ccc([N+](=O)[O-])cc1 [DC-S359] the inhibition at 100 µM was 5%.
With O=C(CCc1ccccc1)NNC(=O)c1ccc(-c2ccccc2)cc1 [DC-S340] the inhibition at 100 µM was -6%.
In the case of O=C(NNC(=O)c1ccc(-c2ccccc2)cc1)c1ccccc1 [DC-S337], the inhibition at 100 µM is reported as 1%.
Compound O=C(NNC(=O)c1cccc([N+](=O)[O-])c1)c1ccc(-c2ccccc2)cc1 [DC-S335] has an inhibition at 100 µM of 12%.
Work on O=C(NNC(=O)c1ccccc1C(=O)O)c1ccc(-c2ccccc2)cc1 [DC-S341] yielded an inhibition at 100 µM of -10%.
O=C(NN=Cc1ccccc1OCc1cccc(Br)c1)c1ccc([N+](=O)[O-])cc1 [DC-S363] gave an inhibition at 100 µM of -15%.
O=C(NN=Cc1ccc(-c2ccccc2Cl)o1)c1ccc([N+](=O)[O-])cc1 [DC-S364] showed an inhibition at 100 µM of 54%.
Work on O=C(NNC(=O)c1cccc(Cl)c1)c1ccc(-c2ccccc2)cc1 [DC-S338] yielded an inhibition at 100 µM of 1%.
With COc1cc(/C=N/NC(=O)c2ccc(-c3ccccc3)cc2)c([N+](=O)[O-])cc1OC [DC-S305] the inhibition at 100 µM was -5%.
Work on COc1ccc2ccccc2c1C=NNC(=O)c1ccc([N+](=O)[O-])cc1 [DC-S361] yielded an inhibition at 100 µM of -1%.
Compound O=C(N/N=C/c1ccc(Cl)c([N+](=O)[O-])c1)c1ccc(-c2ccccc2)cc1 [DC-S304] has an inhibition at 100 µM of 44%.
With Nc1ccccc1C(=O)N/N=C/c1cc([N+](=O)[O-])ccc1Cl [DC-S319] the inhibition at 100 µM was 14%.
With O=C(CCC(=O)N/N=C/c1cc([N+](=O)[O-])ccc1Cl)NCc1ccccc1 [DC-S314] the inhibition at 100 µM was 77%.
Compound O=C(NN=Cc1c[nH]nc1-c1ccc(Cl)cc1)c1ccc([N+](=O)[O-])cc1 [DC-S356] has an inhibition at 100 µM of 17%.
O=C(N/N=C/c1cc([N+](=O)[O-])ccc1Cl)C(c1ccccc1)c1ccccc1 [DC-S315] showed an inhibition at 100 µM of 46%.
O=C(NN=Cc1ccc([N+](=O)[O-])cc1)c1cccc(Cl)c1 [DC-S367] showed an inhibition at 100 µM of -1%.
Work on Cc1c(C=NNC(=O)c2ccc([N+](=O)[O-])cc2)cnn1C [DC-S348] yielded an inhibition at 100 µM of -11%.
In the case of O=C(NN=Cc1ccccc1OC(=O)c1ccc(Cl)cc1)c1ccc([N+](=O)[O-])cc1 [DC-S358], the inhibition at 100 µM is reported as 6%.
With O=C(NN=Cc1cn(Cc2ccc(Cl)cc2Cl)c2ccccc12)c1ccc([N+](=O)[O-])cc1 [DC-S350] the inhibition at 100 µM was 6%.
COc1ccc(C(=O)NNC(=O)c2ccc(-c3ccccc3)cc2)cc1 [DC-S336] gave an inhibition at 100 µM of 49%.
Compound COc1ccc(/C=N/NC(=O)c2ccc(-c3ccccc3)cc2)c(OC)c1Br [DC-S308] has an inhibition at 100 µM of 7%.
Compound O=C(N/N=C/c1cc([N+](=O)[O-])ccc1Cl)c1ccc(O)cc1 [DC-S320] has an inhibition at 100 µM of 11%.
COc1ccc(/C=N/NC(=O)c2ccc(-c3ccccc3)cc2)cc1O [DC-S307] showed an inhibition at 100 µM of 8%.
Cc1cccc(/C=N/NC(=O)c2ccc(-c3ccccc3)cc2)c1 [DC-S309] gave an inhibition at 100 µM of -5%.
COc1ccc(-c2ccc(C=NNC(=O)c3ccc([N+](=O)[O-])cc3)o2)cc1Cl [DC-S360] gave an inhibition at 100 µM of 4%.
In the case of O=C(NNC(=O)c1ccc(-c2ccccc2)cc1)c1ccc(F)cc1 [DC-S339], the inhibition at 100 µM is reported as -6%.
With O=C(NN=Cc1cc2c(cc1[N+](=O)[O-])OCO2)c1ccc([N+](=O)[O-])cc1 [DC-S349] the inhibition at 100 µM was -1%.
O=C(NNC(=O)c1ccc([N+](=O)[O-])cc1)c1ccc(-c2ccccc2)cc1 [DC-S334] showed an inhibition at 100 µM of 96%.
CCOc1ccc(/C=N/NC(=O)c2ccc(-c3ccccc3)cc2)c(OCC)c1 [DC-S310] gave an inhibition at 100 µM of -6%.
With COc1cc(OC)c(C=NNC(=O)c2ccc([N+](=O)[O-])cc2)cc1Br [DC-S352] the inhibition at 100 µM was 39%.
With O=C(N/N=C/c1c(Cl)cccc1Cl)c1ccc(-c2ccccc2)cc1 [DC-S313] the inhibition at 100 µM was -6%.
In the case of O=C(NN=Cc1ccc([N+](=O)[O-])cc1)c1ccc(CSc2ccccc2)cc1 [DC-S366], the inhibition at 100 µM is reported as 9%.
For COC(=O)N/N=C/c1cc([N+](=O)[O-])ccc1Cl [DC-S318], the inhibition at 100 µM was 17%.
For O=C(NN=Cc1cccc(Cl)c1)c1ccc([N+](=O)[O-])cc1 [DC-S345], the inhibition at 100 µM was 29%.
In the case of O=C(NN=Cc1cc2c(cc1Br)OCO2)c1ccc([N+](=O)[O-])cc1 [DC-S351], the inhibition at 100 µM is reported as 96%.
Compound Nc1ccc(C=NNC(=O)c2ccc([N+](=O)[O-])cc2)cc1 [DC-S346] has an inhibition at 100 µM of 21%.
In the case of O=C(N/N=C/c1cc([N+](=O)[O-])ccc1Cl)c1ccc(O)cc1O [DC-S321], the inhibition at 100 µM is reported as 9%.
For COc1cc(/C=N/NC(=O)c2ccc(-c3ccccc3)cc2)ccc1OC(C)=O [DC-S306], the inhibition at 100 µM was 94%.
With O=C(NN=Cc1ccccc1OC(=O)c1ccc([N+](=O)[O-])cc1)c1ccc([N+](=O)[O-])cc1 [DC-S355] the inhibition at 100 µM was 20%.
Work on O=C(NN=Cc1ccc(Cl)s1)c1ccc([N+](=O)[O-])cc1 [DC-S344] yielded an inhibition at 100 µM of 32%.
For COc1ccc(C=NNC(=O)c2ccc([N+](=O)[O-])cc2)cc1 [DC-S353], the inhibition at 100 µM was 35%.

Target: T1, SET7
Test: 3H-labeled radioisotope methylation assay
Format: biochemical
Settings: 3H radioactive methylation assay
Description: As for ^3Hradioactive methylation assay, SAH was used as the reference compound and the compounds were tested in 10 concentrations in duplicate in modified Tris buffer (1× assay buffer). The following materials were purchased: SET7 (Enzo, Cat. No. ALX-201-178, New York, NY, USA), [^3H]-SAM (PerkinElmer Inc., Lot. No. 1790854), SAH (Sigma, Cat. No. A9384-25MG, St. Louis, MO, USA) and 384-well Flashplate (Perkin Elmer, Cat. No. SMP410A001PK,). The compounds were transferred to the assay plate by Echo 550 with 3-fold dilution in 100% DMSO where the final DMSO concentration is 1%. Then the enzyme solution was transferred to the assay plate and 1× assay buffer was transferred for low control. After 15 min incubation at room temperature, peptide and [^3H]-SAM mix solution was transferred to each well to start the reaction. The cold SAM in 1× buffer was added to each well to stop the reaction after 60 min incubation at room temperature. 25 μL of the whole reaction system per well was transferred to Flashplate which was washed with dH2O and 0.1% Tween-20 for three times after 60 min incubation. The data was read on Microbeta. All the inhibition assays are performed in duplicate.
In the case of Nc1ncnc2c1ncn2[C@@H]1O[C@H](CSCC[C@H](N)C(=O)O)[C@@H](O)[C@H]1O [SAH, reference compound], the IC50 is reported as 5.4 µM.

System: SET7
Test: not given
Settings: SET7, previous research of the authors; cited from earlier work
For CCOC(=O)c1c(N)sc(C(=O)Nc2cccc([N+](=O)[O-])c2)c1C [DC-S239], the IC50 is given as 4.6 µM.
In the case of COC(=O)c1c(N)sc(C(=O)Nc2cccc([N+](=O)[O-])c2)c1C [DC-S238], the IC50 is listed as 4.9 µM.

Same assay, conditions: SET7; cited from earlier work
In the case of O=C([C@@H](Cc1cccc(C(F)(F)F)c1)NS(=O)(=O)c1cc(F)c2c(c1)CCNC2)N1CCCC1 [(R)-PFI-2], the IC50 is given as 0.002 µM.
